Measured values from patent publication US20030217389A1, “Novel peptides and methods of use” (priority 2002, published 2003).

Assays:
[1] = test system: liquid tomato cell culture; assay: Alkalinization of a liquid tomato cell culture; assay type: cell-based
tomato apical meristems = assay: Growth of excised tomato apical meristems in liquid culture; assay type: cell-based, Lycopersicon esculentum; details: for growth of isolated tomato apical meristems: 100 nM peptide in liquid media, evaluated on the 16th day, compared with control peptide
Protocol: Tomato plants (Lycopersicon esculentum cv. Castlemart) were grown in a growth chamber with 17 hours of light (300 μmol m^−2s^−1) per day at 28° C. and seven hour nights at 18° C. Apical meristems were excised from shoot tips of two week old tomato plants. Shoot tips (1-2 cm long) were surface sterilized using 70% ethanol solution for 20-30 seconds, followed by a 20 minute incubation in a 1.5% (v/v) commercial bleach solution. Shoot tips were washed once in sterilized water after the ethanol treatment, and four times after bleaching. Apical meristems (including meristematic tissue, dome, with a leaf primordium) were carefully isolated under a stereoscope.
Isolated meristems were immediately inoculated into a liquid media (MS salts and vitamin mixture powder (Life Technologies) and 20 g/L of sucrose) containing either tomato RALF (100 nM) (SEQ ID NO: 4), or a control peptide (100 nM) that was not capable of stimulating meristem growth. Four meristems were inoculated in a 125 mL Erlenmeyer flask containing 10 mL of media, and flasks were gently shaken at 60 rpm. Sixteen meristems were tested for each treatment in four separate flasks. The liquid media was replaced with fresh media on the 5th, 12th and 14th days of the experiment. The experiment was evaluated and terminated on the 16th day.

Tobacco suspension cells = assay: Plant cell culture alkalinization assay; assay type: cell-based
Protocol: Plant Cell Culture Alkalinization Assay: Tobacco suspension cells were maintained in MS media. The media was adjusted to pH 5.6 with KOH. Three ml aliquots of one week old cultures were transferred into 35 ml of media in 125 ml flasks and placed on an orbital shaker at 160 rpm in the dark for growth. Cells were used for assay 3-5 days after transfer (cell density was approximately 0.5 to 1.5×10^6 cells/ml). One ml of cells was aliquoted into each well of 24-well cell culture cluster plates (Costar, number 3527, Corning Incorporated, Corning, N.Y.) and allowed to equilibrate on an orbital shaker at 160 rpm for 1 hr. Aliquots (1 to 10 μl) of fractions to be tested were added to the cells and the increasing pH change of the medium (medium alkalinization) was detected with time using an Orion Model EA940 pH meter with an Orion semi-micro pH electrode (Catalog number 8103BN, Orion, Beverly, Mass.).

Sequence	alkalinization of a liquid tomato cell culture [1]	growth of isolated tomato apical meristems (tomato apical meristems)	growth of isolated tomato apical meristems (tomato apical meristems; listed as tomato RALF (SEQ ID NO: 4))	rate of meristem tissue growth in the presence versus the absence of the polypeptide (tomato apical meristems; experiments of Example 3)	alkalinization of the medium of the liquid plant cell culture (pH change) (Tobacco suspension cells)
ATKKYISYGALQKNSVPCSRRGASYYNCKPGAQANPYTRGCSAITRCRS (listed as Lycopersicon esculentum) [tomato RALF polypeptide (SEQ ID NO: 4), chemically synthesized tomato RALF polypeptide]	induce alkalinization	stimulates the growth	stimulated growth	at least twice as fast	
ATKKYISYGALQKNSVPCSRRGASYYNCKPGAQANPYSRGCSAITRCRS (listed as Nicotiana tabacum) [tobacco RALF polypeptide, approximately 5 kDa polypeptide isolated from tobacco leaves]					rapidly induced alkalinization
